Bridge positions count the residues as written; N and C are the ends. Square brackets hold non-standard residues; d marks the D form. Side chains are listed from the residue outwards. Peptide text beside a SMILES is read from it. I, II: the chains in the order shown. * marks the point of attachment. Stearoyl = CCCCCCCCCCCCCCCCCC(=O)*
Legend:
HEK293 cells = assay: Cell viability by PrestoBlue assay after transfection, HEK cells; type: cell-based; conditions: 4 h
HeLa cells = assay: Cell viability by PrestoBlue assay after transfection, HeLa cells; type: cell-based; conditions: 4 h

Row | SMILES | % viability HEK cells (HEK293 cells) | % viability HeLa cells (HeLa cells)
1 | CCCCCCCCCCCCCCCCCC(=O)NCCCC[C@H](NC(=O)[C@H](CCCCNC(=O)[C@H](CC(C)C)NC(=O)[C@H](CCCCN)NC(=O)[C@H](CCCCNC(=O)[C@H](CC(C)C)NC(=O)[C@H](CCCCN)NC(=O)[C@H](CCCCNC(=O)[C@H](CC(C)C)NC(=O)[C@@H](N)CCCCN)NC(=O)[C@H](CC(C)C)NC(=O)[C@@H](N)CCCCN)NC(=O)[C@H](CC(C)C)NC(=O)[C@H](CCCCN)NC(=O)[C@H](CCCCNC(=O)[C@H](CC(C)C)NC(=O)[C@@H](N)CCCCN)NC(=O)[C@H](CC(C)C)NC(=O)[C@@H](N)CCCCN)NC(=O)[C@H](CC(C)C)NC(=O)[C@H](CCCCN)NC(=O)[C@H](CCCCNC(=O)[C@H](CC(C)C)NC(=O)[C@H](CCCCN)NC(=O)[C@H](CCCCNC(=O)[C@H](CC(C)C)NC(=O)[C@@H](N)CCCCN)NC(=O)[C@H](CC(C)C)NC(=O)[C@@H](N)CCCCN)NC(=O)[C@H](CC(C)C)NC(=O)[C@H](CCCCN)NC(=O)[C@H](CCCCNC(=O)[C@H](CC(C)C)NC(=O)[C@@H](N)CCCCN)NC(=O)[C@H](CC(C)C)NC(=O)[C@@H](N)CCCCN)C(=O)N[C@@H](C)C(N)=O [Z15] (I: H-KLK([Leu-Lys])KLKKLKK(Stearoyl)A-NH2 / II: H-KLK([Leu-Lys])KLKKL / III: H-KLK([Leu-Lys])KL / IV: H-KLK([Leu-Lys])KL; amide I:6-IV:C, I:9-II:C, II:6-III:C) | 71 ± 7% | 107 ± 10%
2 | CCCCCCCCCCCCCCCCCC(=O)NCCCC[C@@H](NC(=O)[C@@H](CCCCNC(=O)[C@@H](CC(C)C)NC(=O)[C@@H](CCCCN)NC(=O)[C@@H](CCCCNC(=O)[C@@H](CC(C)C)NC(=O)[C@@H](CCCCN)NC(=O)[C@@H](CCCCNC(=O)[C@@H](CC(C)C)NC(=O)[C@H](N)CCCCN)NC(=O)[C@@H](CC(C)C)NC(=O)[C@H](N)CCCCN)NC(=O)[C@@H](CC(C)C)NC(=O)[C@@H](CCCCN)NC(=O)[C@@H](CCCCNC(=O)[C@@H](CC(C)C)NC(=O)[C@H](N)CCCCN)NC(=O)[C@@H](CC(C)C)NC(=O)[C@H](N)CCCCN)NC(=O)[C@@H](CC(C)C)NC(=O)[C@@H](CCCCN)NC(=O)[C@@H](CCCCNC(=O)[C@@H](CC(C)C)NC(=O)[C@@H](CCCCN)NC(=O)[C@@H](CCCCNC(=O)[C@@H](CC(C)C)NC(=O)[C@H](N)CCCCN)NC(=O)[C@@H](CC(C)C)NC(=O)[C@H](N)CCCCN)NC(=O)[C@@H](CC(C)C)NC(=O)[C@@H](CCCCN)NC(=O)[C@@H](CCCCNC(=O)[C@@H](CC(C)C)NC(=O)[C@H](N)CCCCN)NC(=O)[C@@H](CC(C)C)NC(=O)[C@H](N)CCCCN)C(=O)N[C@H](CS)C(N)=O [Z20] (I: H-[dK][dL][dK]([dL-dK])[dK][dL][dK][dK][dL][dK][dK](Stearoyl)[dC]-NH2 / II: H-[dK][dL][dK]([dL-dK])[dK][dL][dK][dK][dL] / III: H-[dK][dL][dK]([dL-dK])[dK][dL] / IV: H-[dK][dL][dK]([dL-dK])[dK][dL]; amide I:6-IV:C, I:9-II:C, II:6-III:C) | 85 ± 9% | 85 ± 9%
3 | CCCCCCCCCCCCCCCCCC(=O)NCCCC[C@@H](NC(=O)[C@@H](CCCCNC(=O)[C@@H](CC(C)C)NC(=O)[C@@H](CCCNC(=N)N)NC(=O)[C@@H](CCCCNC(=O)[C@@H](CC(C)C)NC(=O)[C@@H](CCCNC(=N)N)NC(=O)[C@@H](CCCCNC(=O)[C@@H](CC(C)C)NC(=O)[C@H](N)CCCNC(=N)N)NC(=O)[C@@H](CC(C)C)NC(=O)[C@H](N)CCCNC(=N)N)NC(=O)[C@@H](CC(C)C)NC(=O)[C@@H](CCCNC(=N)N)NC(=O)[C@@H](CCCCNC(=O)[C@@H](CC(C)C)NC(=O)[C@H](N)CCCNC(=N)N)NC(=O)[C@@H](CC(C)C)NC(=O)[C@H](N)CCCNC(=N)N)NC(=O)[C@@H](CC(C)C)NC(=O)[C@@H](CCCNC(=N)N)NC(=O)[C@@H](CCCCNC(=O)[C@@H](CC(C)C)NC(=O)[C@@H](CCCNC(=N)N)NC(=O)[C@@H](CCCCNC(=O)[C@@H](CC(C)C)NC(=O)[C@H](N)CCCNC(=N)N)NC(=O)[C@@H](CC(C)C)NC(=O)[C@H](N)CCCNC(=N)N)NC(=O)[C@@H](CC(C)C)NC(=O)[C@@H](CCCNC(=N)N)NC(=O)[C@@H](CCCCNC(=O)[C@@H](CC(C)C)NC(=O)[C@H](N)CCCNC(=N)N)NC(=O)[C@@H](CC(C)C)NC(=O)[C@H](N)CCCNC(=N)N)C(=O)N[C@H](CS)C(N)=O [Z22] (I: H-[dR][dL][dK]([dL-dR])[dR][dL][dK][dR][dL][dK][dK](Stearoyl)[dC]-NH2 / II: H-[dR][dL][dK]([dL-dR])[dR][dL][dK][dR][dL] / III: H-[dR][dL][dK]([dL-dR])[dR][dL] / IV: H-[dR][dL][dK]([dL-dR])[dR][dL]; amide I:6-IV:C, I:9-II:C, II:6-III:C) | 64 ± 4% | 92 ± 7%
4 | CCCCCCCCCCCCCCCCCC(=O)NCCCC[C@H](NC(=O)[C@H](CCCCNC(=O)[C@H](CC(C)C)NC(=O)[C@H](CCCNC(=N)N)NC(=O)[C@H](CCCCNC(=O)[C@H](CC(C)C)NC(=O)[C@H](CCCNC(=N)N)NC(=O)[C@H](CCCCNC(=O)[C@H](CC(C)C)NC(=O)[C@@H](N)CCCNC(=N)N)NC(=O)[C@H](CC(C)C)NC(=O)[C@@H](N)CCCNC(=N)N)NC(=O)[C@H](CC(C)C)NC(=O)[C@H](CCCNC(=N)N)NC(=O)[C@H](CCCCNC(=O)[C@H](CC(C)C)NC(=O)[C@@H](N)CCCNC(=N)N)NC(=O)[C@H](CC(C)C)NC(=O)[C@@H](N)CCCNC(=N)N)NC(=O)[C@H](CC(C)C)NC(=O)[C@H](CCCNC(=N)N)NC(=O)[C@H](CCCCNC(=O)[C@H](CC(C)C)NC(=O)[C@H](CCCNC(=N)N)NC(=O)[C@H](CCCCNC(=O)[C@H](CC(C)C)NC(=O)[C@@H](N)CCCNC(=N)N)NC(=O)[C@H](CC(C)C)NC(=O)[C@@H](N)CCCNC(=N)N)NC(=O)[C@H](CC(C)C)NC(=O)[C@H](CCCNC(=N)N)NC(=O)[C@H](CCCCNC(=O)[C@H](CC(C)C)NC(=O)[C@@H](N)CCCNC(=N)N)NC(=O)[C@H](CC(C)C)NC(=O)[C@@H](N)CCCNC(=N)N)C(=O)N[C@@H](CS)C(N)=O [Z24] (I: H-RLK([Leu-Arg])RLKRLKK(Stearoyl)C-NH2 / II: H-RLK([Leu-Arg])RLKRL / III: H-RLK([Leu-Arg])RL / IV: H-RLK([Leu-Arg])RL; amide I:6-IV:C, I:9-II:C, II:6-III:C) | 86 ± 1% | 91 ± 6%

Source: publication PMC11352961, “Peptide dendrimers transfecting CRISPR/Cas9 plasmid DNA: optimization and mechanism” (RSC Chemical Biology, 2024)
